Results taken from patent US5338868A, “Process for preparing alpha-amino-phenylacetic acid-trifluoromethane sulfonic acid mixed anhydrides” (Chinoin Gyogyszer- es Vegyeszeti Termekek Gyara Rt., priority 1989, dated 1994).

Test: Quality of the Dane salt during storage for 30 days
Assay type: physicochemical

| quality during storage (room temperature, air) | SMILES | quality after storage (stored at room temperature) |
| --- | --- | --- |
| does not change | CCOC(=O)C=C(C)N[C@@H](C(=O)O)c1ccc(O)cc1 [Example 9] |  |
|  | CCOC(=O)C=C(C)N[C@@H](C(=O)[O-])c1ccccc1.[Na+] [Example 15, sodium-D-N-(2-ethoxycarbonyl-1-methyl-vinyl)-α-amino-phenyl-acetate] | remains unchanged |
